Experimental data from patent US20190209581A1, “DOSAGE REGIMEN FOR TREATMENT OF SOLID TUMORS” (Eli Lilly and Company, priority 2016, published 2019).

How the values were obtained:
[1] = tested on: K-562 human chronic myelogenous leukemia (CML) cell line; test: Tumor growth inhibition, K-562 xenograft; assay type: in vivo; conditions: K-562 in mice, oral 8 mg/kg, (Mon, Wed, Fri)x4; p <0.05 to <0.001
Description: To evaluate in vivo efficacy and effect of 4,4,4-Trifluoro-N-[(1S)-2-[[(7S)-5-(2-hydroxyethyl)-6-oxo-7H-pyrido[2,3-d][3]benzazepin-7-yl]amino]-1-methyl-2-oxo-ethyl]butanamide on inhibition of Notch processing pharmacodynamics (PD), several cell lines- and patient-derived xenograft models are used. A2780 is a human ovarian cell line (Sigma-Aldrich, No. 93112519); SW480 is a human colorectal cell line (ATCC No. CCL-228); HCT 116 is a human colorectal cell line (ATCC No. CCL-247); U-87 MG is a human glioblastoma cell line (ATCC No. HTB-14); A375 is a human malignant melanoma cell line (ATCC No. CRL-1619); K-562 is a human chronic myelogenous leukemia (CML) cell line characterized by the presence of a fusion transcript comprised of the Bcr and Abl1 genes (ATCC No. CCL-243); Jurkat; HEL 92.1.7 is a human erythroleukemia cell line (ATCC No. TIB-180). […] Tumor growth and body weight are monitored over time to evaluate efficacy and signs of toxicity. Bidimensional measurements of tumors are performed twice a week and tumor volumes are calculated based on the following formula: (Tumor Volume)=[(L)×(W2)×(Π/6)] where L is mid-axis length and W is mid-axis width. […] The log volume data are analyzed with a two-way repeated measures analysis of variance by time and treatment using the MIXED™ procedures in SAS™ software (version 8.2). […]

Toxicokinetics in rats = assay type: in vivo, rat
Description: A study is carried out to assess the toxicity and toxicokinetics of 4,4,4-Trifluoro-N-[(1S)-2-[[(7S)-5-(2-hydroxyethyl)-6-oxo-7H-pyrido[2,3-d][3]benzazepin-7-yl]amino]-1-methyl-2-oxo-ethyl]butanamide in rats given oral gavage doses of 0, 1.3, or 4.3 mg/kg once daily for 2 weeks or 1, 3, 10, or 30 mg/kg 3 times/week for 2 weeks.
4,4,4-Trifluoro-N-[(1S)-2-[[(7S)-5-(2-hydroxyethyl)-6-oxo-7H-pyrido[2,3-d][3]benzazepin-7-yl]amino]-1-methyl-2-oxo-ethyl]butanamide is combined with a vehicle comprising 1% carboxymethylcellulose sodium, 0.25% polysorbate 80 and 0.05% Dow Corning® Antifoam 1510-US in purified water. Sprague Dawley CD®/IGS rats (crl:CD(SD)), International Genetic Standardization (IGS) 7-9 week old rats, 3/sex/group, Charles River Laboratories, Inc, are used for the study. Animals are fed ad libitum with 12 hours light, 12 hours dark cycle maintained in ventilated stainless-steel racks at an ambient temperature of 22.2+/[…] and relative humidity of 30% to 70%. The test compound is dosed according to Table 1. The test compound is administered by oral gavage in a volume of 10 mL/kg body weight. The duration of the study for all groups is 14 days.
Additional Groups of animals 3/sex/group (Groups 08, 09, and 12) and 3 females/group (Groups 10, 11, and 13) are dosed for toxicokinetic evaluations. For Groups 08, 09, and 10, blood is collected from each animal at the following times relative to dosing on Days 3 and 14: 0 (predose; Day 14 only), 0.5, 1, 2, 4, 8, 24, 30, and 48 hours postdose. For Group 11, blood is collected from each animal at the following times relative to dosing on Day 3: 0.5, 1, 2, 4, 8, 24, 30, and 48 hours postdose. For Group 12, blood is collected from each animal at the following times relative to dosing on Days 1 and 14: 0 (predose; Day 14 only), 0.5, 1, 2, 4, 8, and 24 hours postdose. For Group 13 blood is collected from each animal at the following times relative to dosing on Day 1: 0.5, 1, 2, 4, 8, and 24 hours postdose. Groups 08 through 13 are used for toxicokinetic evaluations. […]

For `C[C@H](NC(=O)CCC(F)(F)F)C(=O)N[C@@H]1C(=O)N(CCO)c2ncccc2-c2ccccc21` [Compound 1, 4,4,4-trifluoro-N-[(1S)-2-[[(7S)-5-(2-hydroxyethyl)-6-oxo-7H-pyrido[2,3-d][3]benzazepin-7-yl]amino]-1-methyl-2-oxo-ethyl]butanamide], the “% TGI” value [1] was 54.96 (<0.05 to %, the “24 hour drug concentrations” value (Toxicokinetics in rats; rat, daily and TIW regimens) was “minimal” and the “Accumulation and differences between sexes in exposure” value (Toxicokinetics in rats; rats, oral gavage) was “No accumulation or major differences between sexes”. For the same molecule, the “Exposure (AUC0-24 hr) versus dose” value (Toxicokinetics in rats; rats, oral gavage, following both single and multiple doses) was “increased in a roughly linear and dose-proportional manner”.
